Here are results for seven compounds from ChEMBL document CHEMBL5154700, “Discovery of Gut-Restricted Small-Molecule Inhibitors of Intestinal Sodium-Dependent Phosphate Transport Protein 2b (NaPi2b) for the Treatment of Hyperphosphatemia” (J Med Chem, 2022).

Data set [1] can be described thus: AUC(0 to infinity) in CRL:CD(SD) rat at 30 mg/kg, po measured after 7 hrs by LC-MS/MS analysis. The following applies: in vivo. In kind it is ADME, organism-based. Further details: dose 30 mg/kg, time 7 hrs, route po.
Data set [2] in a line: Half life in CRL:CD(SD) rat at 30 mg/kg, po measured after 7 hrs by LC-MS/MS analysis. In kind it is ADME, organism-based. The following applies: in vivo.
Data set [3] can be described thus: Drug concentration in CRL:CD(SD) rat lung at 30 mg/kg, po measured after 7 hrs by LC-MS/MS analysis. In kind it is ADME, organism-based. The following applies: read-out: Ct.
A short description of data set [4]: Cmax in CRL:CD(SD) rat at 30 mg/kg, po measured after 7 hrs by LC-MS/MS analysis. In kind it is ADME, organism-based. The following applies: in vivo. Set-up: dose 30 mg/kg, time 7 hrs, route po.
The nature of data set [5]: Passive permeability of the compound across apical to basolateral at 100 uM incubated for 5 hrs by PAMPA assay. The following applies: read-out: permeability. In kind it is ADME.
Data set [6] is described as follows: Mean residence time in CRL:CD(SD) rat at 30 mg/kg, po measured after 7 hrs by LC-MS/MS analysis. The note with it: in vivo. In kind it is ADME, organism-based.
Data set [7] is described as follows: Inhibition of phosphate uptake in CRL:CD(SD) rat small intestine in at 0.1 mg treated through intrajejunal after 30 mins by In-situ closed-loop method. The note with it: in vivo, other, 0.5 h.
Data set [8] in a line: Solubility of compound in phosphate buffer at pH 7.4. In kind it is physicochemical.
Data set [9] is described as follows: Drug concentration in CRL:CD(SD) rat plasma at 30 mg/kg, po measured after 7 hrs by LC-MS/MS analysis. In kind it is ADME, organism-based.
A short description of data set [10]: AUC (0 to t) in CRL:CD(SD) rat at 30 mg/kg, po measured after 7 hrs by LC-MS/MS analysis. In kind it is ADME, organism-based. Further details: time 7 hrs, dose 30 mg/kg, route po. The note with it: in vivo.
For data set [11], the target named is T1, Sodium-dependent phosphate transport protein 2B (Homo sapiens, UniProt O95436).
T1 sequence (O95436 whole entry): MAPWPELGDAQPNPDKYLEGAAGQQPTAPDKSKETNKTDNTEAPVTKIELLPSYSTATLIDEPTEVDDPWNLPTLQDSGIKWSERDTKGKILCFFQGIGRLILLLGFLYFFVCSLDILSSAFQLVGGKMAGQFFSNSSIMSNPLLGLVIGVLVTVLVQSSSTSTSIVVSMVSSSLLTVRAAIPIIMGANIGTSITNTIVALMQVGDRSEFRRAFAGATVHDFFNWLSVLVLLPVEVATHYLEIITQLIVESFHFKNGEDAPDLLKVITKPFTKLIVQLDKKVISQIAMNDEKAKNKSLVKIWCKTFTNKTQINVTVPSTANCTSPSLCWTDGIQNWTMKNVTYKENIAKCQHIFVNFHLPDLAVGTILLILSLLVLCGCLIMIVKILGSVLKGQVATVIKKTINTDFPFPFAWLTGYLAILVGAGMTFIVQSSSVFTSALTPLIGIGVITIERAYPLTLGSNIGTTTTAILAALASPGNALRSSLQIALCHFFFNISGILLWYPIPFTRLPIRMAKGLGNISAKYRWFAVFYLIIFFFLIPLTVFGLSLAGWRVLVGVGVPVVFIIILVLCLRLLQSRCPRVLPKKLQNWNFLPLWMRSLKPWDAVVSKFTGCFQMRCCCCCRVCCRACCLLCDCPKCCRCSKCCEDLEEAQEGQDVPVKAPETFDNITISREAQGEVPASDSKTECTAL
In words: Inhibition of human NaPi2b expressed in KJMGER8 cells assessed as reduction in H2[33P]O4 uptake incubated for 60 mins by TopCount scintillation counting method. In kind it is cell-based.

Data set [12] is described as follows: Oral bioavailability in CRL:CD(SD) rat at 30 mg/kg measured after 7 hrs by LC-MS/MS analysis. The following applies: in vivo. In kind it is ADME, organism-based.
A short description of data set [13]: Ratio of drug level in lung to plasma in CRL:CD(SD) rat at 30 mg/kg, po measured after 7 hrs by LC-MS/MS. In kind it is ADME, organism-based. The following applies: lung and plasma.
Data set [14] in a line: Drug concentration in CRL:CD(SD) rat lung at 30 mg/kg, po measured after 6 hrs by LC-MS/MS analysis. In kind it is ADME, organism-based. The note with it: read-out: Ct.
Data set [15] is described as follows: AUC (0 to t) in CRL:CD(SD) rat at 10 mg/kg, po by LC-MS/MS analysis. In kind it is ADME, organism-based. Set-up: dose 10 mg/kg, route po. The note with it: in vivo.
Data set [16] is described as follows: Cmax in CRL:CD(SD) rat at 10 mg/kg, po by LC-MS/MS analysis. In kind it is ADME, organism-based. The note with it: in vivo. Set-up: dose 10 mg/kg, route po.
Data set [17] can be described thus: Drug concentration in CRL:CD(SD) rat plasma at 30 mg/kg, po measured after 6 hrs by LC-MS/MS analysis. In kind it is ADME, organism-based.
Data set [18] is described as follows: Oral bioavailability in CRL:CD(SD) rat at 10 mg/kg by LC-MS/MS analysis. In kind it is ADME, organism-based. The note with it: in vivo.

≈ marks a conversion by molar mass, not a printed value. Some results are limits rather than exact numbers.

The compound `COCCN(CCOCCOCCOCCOCCOCCOCc1cccc(C(=O)Nc2sc3c(c2C(=O)N/N=C/c2ccc(Cl)c(C(F)(F)F)c2)CCC(C)(C)C3)c1)CC(=O)O` gave a total exposure AUC(0-inf) in [1] of 2.62 ng·h/mL. The half-life in data set [2] was 3.53 h. In addition, the figures for the concentration at 7 h in data set [3] and in data set [9] were less than 1.5 ng/g and less than 0.3 ng/mL, respectively. For the same compound, the peak level in data set [4] (Cmax) was 0.444 ng/mL. Further, in [5], the Papp at 5 h, 100 µM was less than 0.025 ×10⁻⁶ cm/s. The same compound showed an MRT in data set [6] of 5.25 h. Besides, the “inhibition (INH)” value in data set [7] was determined as 17%. The compound further came in with a solubility in data set [8] of 122 µM (≈ 115 µg/mL). In data set [10], the AUC(0-t) at 7 h amounted to 0.665 ng·h/mL. In addition, the half-maximal inhibitory concentration (IC50) in data set [11] was found to be 64 nM. Moreover, the bioavailability in data set [12] is 0.1%.
`CC1(C)CCc2c(sc(NC(=O)c3cccc(OCCOCCOCCOC[C@H](O)CN(CCO)CCO)c3)c2C(=O)N/N=C/c2ccc(Cl)c(C(F)(F)F)c2)C1`: the Kp at 7 h in data set [13] turned out to be 44. The compound further came in with a solubility in [8] of 76 µM (≈ 64.1 µg/mL). In addition, in [11], the IC50 is 83 nM.
`CCN(CC)CCOCCOCCOc1cccc(C(=O)Nc2sc3c(c2C(=O)N/N=C/c2ccc(Cl)c(C(F)(F)F)c2)CCC(C)(C)C3)c1`: the partition ratio (Kp) at 7 h in data set [13] worked out at 130. In addition, the Papp at 5 h, 100 µM in data set [5] is less than 0.025 ×10⁻⁶ cm/s. Besides, in data set [8], the solubility stood at 55 µM (≈ 40.6 µg/mL). Further, the concentration for half-maximal inhibition (IC50) in [11] stood at 40 nM.
In the case of `CCN(CC)C[C@@H](O)COCCOCCOCCOc1cccc(C(=O)Nc2sc3c(c2C(=O)N/N=C/c2ccc(Cl)c(C(F)(F)F)c2)CCC(C)(C)C3)c1`, the Kp at 7 h in data set [13] was 428.
`CCN(CC)CCCN(C)Cc1cccc(C(=O)Nc2sc3c(c2C(=O)N/N=C/c2ccc(Cl)c(C(F)(F)F)c2)CCN(C2CC2)C3)c1`: the concentration at 6 h in data set [14] turned out to be 6350 ng/g; in [17], 1.86 ng/mL. In data set [15], this compound gave an AUC(0-t) of 10.4 ng·h/mL. In data set [16], the maximum concentration (Cmax) came out at 3.59 ng/mL. Further, the bioavailability in data set [18] was found to be 0.96%.
Turning to `CCN(CC)CCOCCOCCOc1cccc(C(=O)Nc2sc3c(c2C(=O)N/N=C/c2ccc(Cl)c(C(F)(F)F)c2)CCN(C2CC2)C3)c1`, the Papp at 5 h, 100 µM in data set [5] was 0.23 ×10⁻⁶ cm/s. In data set [8], the concentration in solution (solubility) was 82 µM (≈ 61.5 µg/mL). Besides, the IC50 in data set [11] is 315 nM.
`O=C(Nc1sc2c(c1C(=O)N/N=C/c1ccc(Cl)c(C(F)(F)F)c1)CCCC2)c1cccc(CN2CCC(O)CC2)c1` came in with a solubility in data set [8] of 0.1 µM (≈ 0.0619 µg/mL). The half-maximal inhibitory concentration (IC50) in data set [11] is 87 nM.
